From the supplement of paper PMC10307832

Legend:
Assay in all cases: relative viability (nuclei count vs DMSO), 5 days (fraction); higher = more cells survive
[1] = compound: CC1=CC=C(C=C1)C(=O)CN2C3=C(CCCC3)SC2=N [Pifithrin_alpha] + CC(=O)Nc1cccc(-n2c(=O)n(C3CC3)c(=O)c3c(Nc4ccc(I)cc4F)n(C)c(=O)c(C)c32)c1 [Trametinib] (partner 0.02 µM)
Procedure, shortened: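 Lung cancer cell lines in 1536-well plates were dosed by pin tool the day after seeding, either with one drug alone or with a fixed anchor-drug dose plus five library-drug doses (not always all listed) in √10 steps. After 5 days, cells were fixed and their nuclei stained in one step (final 0.05% Triton X-100, 1% formaldehyde, 1 ug/ml Hoechst), then counted on 4× images. Relative viability is the nuclei count in treated wells divided by that in vehicle wells. Values are medians of duplicate plates.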

[2] = compound: CC1=CC=C(C=C1)C(=O)CN2C3=C(CCCC3)SC2=N [Pifithrin_alpha]
Procedure, shortened: (§1)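 Five library-drug doses spaced by √10 were pinned onto vehicle-anchored 1536-well plates of lung cancer cell lines that had been kept overnight at 37 °C. Cells went 5 days without medium change, then were fixed, permeabilised and Hoechst-stained together, imaged at 4× and counted by MetaXpress. Viability is the ratio of treated-well to vehicle-well nuclei, taken as a median over plates. Plates required control CV below 25% and at least one doubling.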

[3] = compound: Nc1nc(Nc2ccc3c(c2)CC[C@@H](N2CCCC2)CC3)nn1-c1cc2c(nn1)-c1ccccc1CCC2 [Bemcentinib]
Procedure, shortened: as §1

[4] = compound: CNC(=O)c1ccccc1Sc1ccc2c(/C=C/c3ccccn3)n[nH]c2c1 [Axitinib]
Procedure, shortened: as §1

Row | Cell Line | relative viability ([1]; first compound 1 µM) | relative viability ([1]; first compound 3.162 µM) | relative viability ([1]; first compound 10 µM) | relative viability ([1]; first compound 31.62 µM) | relative viability ([1]; first compound 100 µM) | relative viability ([2]; 1 µM) | relative viability ([2]; 3.162 µM) | relative viability ([2]; 10 µM) | relative viability ([2]; 31.62 µM) | relative viability ([2]; 100 µM) | relative viability ([3]; 0.04 µM) | relative viability ([3]; 0.1265 µM) | relative viability ([3]; 0.4 µM) | relative viability ([3]; 1.265 µM) | relative viability ([3]; 4 µM) | relative viability ([4]; 0.005 µM) | relative viability ([4]; 0.01581 µM) | relative viability ([4]; 0.05 µM) | relative viability ([4]; 0.1581 µM) | relative viability ([4]; 0.5 µM)
1 | NCI-H322M | 0.436 | 0.307 | 0.514 | 0.509 | 0.539 | 0.906 | 0.891 | 1.01 | 0.851 | 0.869 | 0.873 | 0.966 | 0.982 | 0.953 | 0.998 | 1.03 | 0.847 | 0.992 | 0.813 | 1.03
2 | NCI-H1651 | 0.833 | 0.821 | 0.863 | 0.851 | 0.958 | 1.03 | 0.998 | 0.944 | 0.871 | 0.944 | 1.04 | 1.06 | 1.08 | 1.01 | 1.01 | 0.973 | 0.89 | 0.963 | 0.951 | 1
3 | SW 900 | 0.698 | 0.801 | 0.636 | 0.57 | 0.723 | 0.706 | 0.643 | 0.75 | 0.648 | 0.653 | 0.772 | 0.97 | 0.913 | 0.742 | 0.871 | 0.929 | 0.584 | 0.724 | 0.92 | 1.01
4 | NCI-H1437 | 0.532 | 0.491 | 0.355 | 0.336 | 0.264 | 1.02 | 1.05 | 0.953 | 0.827 | 0.793 | 0.925 | 1.01 | 1.03 | 0.965 | 0.969 | 1.05 | 0.991 | 0.961 | 0.983 | 1.01
5 | NCI-H1355 | 0.39 | 0.362 | 0.298 | 0.31 | 0.282 | 0.849 | 0.808 | 0.645 | 0.565 | 0.713 | 0.992 | 1.08 | 1.09 | 0.974 | 1.06 | 0.945 | 1.01 | 1.05 | 0.968 | 0.901
6 | NCI-H2342 | 0.856 | 0.734 | 0.811 | 0.772 | 0.843 | 0.916 | 0.928 | 0.884 | 0.976 | 0.929 | 0.949 | 1.06 | 1.01 | 0.932 | 1.01 | 0.975 | 1.14 | 1.01 | 1.09 | 0.775
7 | NCI-H1755 | 0.724 | 0.682 | 0.706 | 0.694 | 0.738 | 0.919 | 0.964 | 0.882 | 0.841 | 1.05 | 1.06 | 1.05 | 1.02 | 1.05 | 1.08 | 1.02 | 1.01 | 1.05 | 0.992 | 0.997
8 | SK-LU-1 | 0.561 | 0.494 | 0.43 | 0.42 | 0.48 | 1.08 | 1.16 | 1.21 | 0.805 | 1.21 | 1.04 | 1.19 | 1.13 | 1.08 | 1.12 | 1.06 | 1.12 | 0.946 | 1.04 | 1.15
9 | NCI-H2126 | 0.456 | 0.503 | 0.487 | 0.445 | 0.452 | 0.638 | 0.862 | 0.884 | 0.85 | 0.822 | 1 | 1.03 | 1.03 | 1.04 | 1.11 | 0.979 | 0.991 | 0.993 | 1 | 0.953
10 | NCI-H1793 | 0.419 | 0.371 | 0.365 | 0.496 | 0.437 | 0.734 | 0.817 | 0.838 | 0.823 | 0.874 | 0.834 | 1.05 | 0.882 | 0.686 | 0.999 | 1.06 | 0.833 | 0.889 | 0.819 | 0.647
11 | HOP-62 | 0.343 | 0.377 | 0.368 | 0.361 | 0.335 | 0.952 | 1.1 | 1.06 | 0.791 | 1.12 | 1.01 | 1.15 | 0.999 | 1.02 | 1.04 | 1.01 | 0.965 | 1.03 | 1.01 | 1.03
12 | NCI-H1395 | – | 1.03 | 1.11 | – | 1.19 | – | 0.902 | 0.915 | 0.693 | 0.85 | 0.893 | 1.02 | 0.952 | 0.892 | 0.838 | 0.992 | 0.719 | 0.985 | 0.886 | 0.878
13 | NCI-H2347 | 0.301 | 0.335 | 0.24 | 0.293 | 0.221 | 0.954 | 1.03 | 1.07 | 0.744 | 1.03 | 0.953 | 1.17 | 1.06 | 0.956 | 1.04 | 0.983 | 0.959 | 1.09 | 1.06 | 0.951
14 | HCC-15 | 0.373 | 0.33 | 0.348 | 0.315 | 0.256 | 0.938 | 1.02 | 0.931 | 0.674 | 0.808 | 0.964 | 1.13 | 1.05 | 1.07 | 1.07 | 1.06 | 0.99 | 1 | 0.98 | 0.947
15 | HCC-44 | 0.945 | 0.846 | 0.727 | 0.786 | 0.747 | 0.819 | 0.911 | 0.911 | 0.736 | 0.856 | 0.984 | 1.03 | 1.01 | 1.02 | 0.988 | 1.01 | 0.971 | 0.977 | 0.987 | 0.988
16 | PC-14 | 0.731 | 0.654 | 0.547 | 0.319 | 0.383 | 0.866 | 1.02 | 0.949 | 0.625 | 0.842 | 1.02 | 1.15 | 1.1 | 1.02 | 1.02 | 1.05 | 0.808 | 1.09 | 0.951 | 1.13
